Laboratory results taken from patent US20260217691A1, “FOXM1 INHIBITORS AND THEIR USE IN TREATING CANCERS” (THE BOARD OF TRUSTEES OF THE UNIVERSITY OF ILLINOIS, priority 2022, published 2026).

What was measured:
[1] = tested on: HCT-116 and HCT-FET cells; test: Chemosensitization (caspase-3 cleavage) of colorectal cancer cells to 5′FU; assay type: cell-based, human
Description: FIG. 16. […] (A) Ovarian cancer (OVCAR-8 and ES-2) cells were treated with indicated concentrations of Doxorubicin (Doxo) alone or in combination with STL001 for 24 hrs. […] (C) colon cancer (HCT-116 and FET) cells were treated with indicated concentrations of 5′FU alone or in combination with STL001 for 24 hrs.

22RV1, LNCaP cells = tested on: 22RV1, LNCaP cells
Description: (§1) FIG. 17. […] (A) Prostate cancer (22RV1 and LNCaP) cells were treated with indicated concentrations of paclitaxel alone or in combination with STL001 for 24 hrs. (B) Tamoxifen resistance MCF-7 breast cancer cells (TAM-R) were treated with indicated concentrations of Tamoxifen alone or in combination with STL001 for 24 hrs. In all cases, total protein samples were obtained from cells immediately after treatment and analyzed for FOXM1, cleaved caspase-3 levels via immunoblotting, β-actin was used as internal loading control (n=3). (C) Percent (%) dead cells in TAM-R cells treated with indicated concentrations of Tamoxifen alone or in combination with STL001 for 24 hrs. […] (F) HCC 143 cells with stable shRNA-mediated FOXM1 knockdown (KD) were treated with doxorubicin alone or in combination with STL001 for 24 hrs and compared to parental cells under the same treatment conditions. In all cases, total protein samples were obtained from cells immediately after treatment and analyzed for FOXM1, cleaved caspase-3 levels via immunoblotting, β-actin was used as internal loading control (n=3).

TAMR cells = assay type: cell-based
Description: as §1

FLO-1 cells = test: Chemosensitization of esophageal adenocarcinoma cells; assay type: cell-based; settings: 24 hrs
Description: In all cases, total protein samples were obtained from cells immediately after treatment and analyzed for FOXM1, cleaved caspase-3 levels via immunoblotting, β-actin was used as internal loading control (n=3). […] In all cases, total protein samples were obtained from cells immediately after treatment and analyzed for FOXM1 and cleaved caspase-3 levels via immunoblotting, β-actin was used as internal loading control.

FOXM1 [2] = target: T1, FOXM1 (Homo sapiens, UniProt Q08050); test: FOXM1 protein levels by immunoblotting in solid cancer cell lines
T1 sequence (Q08050 1-763): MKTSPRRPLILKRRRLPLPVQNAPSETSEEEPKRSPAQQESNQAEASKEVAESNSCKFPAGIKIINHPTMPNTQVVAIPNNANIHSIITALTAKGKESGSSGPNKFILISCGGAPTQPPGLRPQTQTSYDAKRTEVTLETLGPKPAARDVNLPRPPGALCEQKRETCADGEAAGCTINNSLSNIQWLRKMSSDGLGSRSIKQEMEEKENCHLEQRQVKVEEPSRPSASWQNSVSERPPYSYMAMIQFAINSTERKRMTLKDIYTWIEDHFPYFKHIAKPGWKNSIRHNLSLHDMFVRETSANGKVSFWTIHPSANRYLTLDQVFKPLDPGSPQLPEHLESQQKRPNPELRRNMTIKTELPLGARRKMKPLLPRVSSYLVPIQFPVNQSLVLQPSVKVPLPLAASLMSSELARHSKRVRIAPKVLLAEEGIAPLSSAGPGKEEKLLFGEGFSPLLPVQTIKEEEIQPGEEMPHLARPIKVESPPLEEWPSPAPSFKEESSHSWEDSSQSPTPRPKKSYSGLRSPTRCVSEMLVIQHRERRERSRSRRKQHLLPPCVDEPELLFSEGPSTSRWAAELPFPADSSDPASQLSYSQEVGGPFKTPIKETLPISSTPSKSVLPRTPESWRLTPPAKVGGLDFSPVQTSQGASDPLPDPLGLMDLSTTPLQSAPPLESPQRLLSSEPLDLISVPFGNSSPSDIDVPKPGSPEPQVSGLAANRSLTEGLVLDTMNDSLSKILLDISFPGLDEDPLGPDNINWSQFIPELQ
Description: Cell culture: Human cell lines LNCaP and 22Rv1 (human prostate carcinoma), OVCAR8 and ES-2 (High-grade serous ovarian cancer, HGSOC), HCT-116 and HCT-FET (human colorectal carcinoma), HCC-1143 (triple negative breast cancer (TNBC), TAMR (Tamoxifen resistant MCF7) human breast cancer, were provided from various investigators. LNCaP and 22Rv1 cell lines were cultured in RPMI-1640 with 2 mM L-Glutamine (Gibco; Thermo Fisher Scientific, Waltham, MA, USA). HCC-1143 cell lines were cultured in Iscove's Modified Dulbecco Medium (IMDM) with 2 mM L-Glutamine (Gibco; Thermo Fisher Scientific). OVCAR-8, ES-2, HCT-116, and HCT-FET cell lines were cultured in Dulbecco's Modified Eagle Medium (DMEM) with 4.5 g/L glucose and 4 mM L-Glutamine (Gibco; Thermo Fisher Scientific). For all cell lines, the growth media was supplemented with 10% Foetal Bovine Serum (FBS), penicillin (100 U/mL), and 100 μg/mL streptomycin (Gibco; Thermo Fisher Scientific). TAMR cells were routinely cultured in DMEM/F12 medium without phenol red (Gibco; Thermo Fisher Scientific), containing 1% charcoal-striped FBS, 2.5 mM L-Glutamine (Thermo Fisher Scientific), 6 ng/mL insulin (Millipore Sigma) and 50 nM 4-hydroxytamoxifen (4-OHT; Millipore Sigma). All cell lines were grown and maintained at 37° C. in a humidified incubator with 5% CO2. Sub-confluent cultures (70-80%) were split 1:5 using 0.25% Trypsin/EDTA (Millipore Sigma).
Drug treatment of cultured cells: After harvesting, cells were counted in presence of Trypan Blue (Thermo Fisher Scientific) and seeded onto tissue culture plates to achieve ~50% confluency. The next day, treatment of cells was performed by aspirating the nonadherent cells and growth medium and replacing it with the fresh one containing selected concentrations of drugs. For Tamoxifen based studies, the nonadherent cells and growth media was aspirated and replaced with the DMEM supplemented with 4.5 g/L glucose and 4 mM L-Glutamine, 10% FBS, penicillin (100 U/mL), 100 μg/mL streptomycin, 10 nM estrogen, and selected concentrations of drugs. […] Post-treatment at selected times, the cells were harvested, washed with ice-cold PBS and used for protein or RNA purification as described below.
Protein immunoblotting: Total protein was extracted using ice-cold radio-immunoprecipitation assay (RIPA) buffer (Millipore Sigma) supplemented with Halt protease- and phosphatise-inhibitor cocktails (Fisher Scientific), 2 mM sodium orthovanadate (New England Biolabs, Inc., USA), and 5 mM sodium fluoride (Millipore Sigma) according to the manufacturer's protocol. Protein content in each sample was estimated using Bio-Rad Protein Assay (Bio-Rad, USA). Equal amounts of protein (20-30 μg) were separated on hand-cast SDS/PAGE (6-12%) mini-protein gels and transferred to 0.2 μm Immobilon-Psq polyvinylidene difluoride (PVDF) transfer membrane (Millipore Sigma). Membranes were blocked with 4% bovine serum albumin (BSA; Millipore Sigma) in TRIS-buffered saline (TBS) with 0.1% Tween-20 (TBS-T, Thermo Fisher Scientific) and probed overnight at 4° C. with the primary antibodies (FOXM1, Cell Signaling Technology (CST), Inc., USA; Cleaved Caspase-3, CST; β-actin, Thermo Fisher Scientific) diluted according to the manufacturer's protocol. […] After incubating membranes with the secondary antibodies, the membranes were then washed three times for 10 min each with TBST. Protein bands were developed using SuperSignal™ West Pico PLUS Chemiluminescent Substrate (Thermo Fisher Scientific) and detected using ChemiDoc Imaging System (Bio-Rad).

FOXM1 [3] = target: T1, FOXM1; test: Immunohistochemistry for nuclear FOXM1 in primary AML samples treated ex vivo; assay type: cell-based; set-up: Total protein samples obtain from treated cells were analyzed for FOXM1 protein levels via immunoblotting; endogenous in cells; host or cells: KG-1, HL-60, K562, THP-1 leukemia cell lines; settings: primary AML samples (n=4), 24 h, 43% for DMSO, p=0.06
Description: FIGS. 13A-13H STL001 is a novel FOXM1 inhibitor that sensitizes leukemia cells to standard cytotoxic and bcl2 inhibitor therapies. FIG. 13A AML cell line KG-1 treated with precursor compound STL427944. FIG. 3B AML cell lines KG-1, HL-60, and K562 were treated with increasing concentrations of STL001 for 24 h. Total protein samples obtained from treated cells were analyzed for FOXM1 protein levels using immunoblotting; β-actin was used as the internal loading control. FIG. 13C KG-1, HL-60, and K562 cells were treated with indicated concentrations of venetoclax and STL001 alone or in combination for 24 h. FIG. 13D KG-1, HL-60, and K562 cells were treated with indicated concentrations of cytarabine and STL001 alone or in combination for 24 h. […] Total protein samples obtained from treated cells were analyzed for FOXM1 protein levels via immunoblotting; β-actin was used as an internal loading control. […] Slides were scanned on an Aperio AT2 brightfield scanner and images were analyzed using HALO 2.0 software. […]
In addition, primary AML samples (n=4) were treated ex vivo with STL001 and slides were scanned on an Aperio AT2 brightfield scanner and images were analyzed using HALO 2.0 software. The % of nuclei staining positive for FOXM1 was calculated per cell and averaged per slide to analyze FOXM1 protein expression and localization. […]

O=C(Oc1cccc(-c2ccn(-c3nc(Nc4ccccc4)nc(N4CCOCC4)n3)n2)c1)c1ccco1 [STL001]
sensitivity to cytotoxic effects of 5′FU in combination [1]: significantly enhanced the sensitivity of colorectal cancer cells to cytotoxic effects of 5′FU therapy
cytotoxic effects (caspase-3 cleavage) in combination with taxol (22RV1, LNCaP cells): enhanced the cytotoxic effects of taxol-therapy
cytotoxic effects (caspase-3 cleavage, cell viability) in combination with tamoxifen (TAMR cells): drastically enhances the cytotoxic effects of tamoxifen therapy
sensitization to Cisplatin, 5′FU, Paclitaxel, Irinotecan (FLO-1 cells): sensitizes esophageal adenocarcinoma cells (FLO-1) to conventional chemotherapeutic drugs
FOXM1 level in combination with cisplatin or doxorubicin (FOXM1 [2]; HCC-1143): efficiently prevents cisplatin or doxorubicin chemotherapy induced FOXM1 upregulation
FOXM1 levels in combination with 5′FU (FOXM1 [2]; HCT-116 and HCT-FET): remarkably decreased 5′FU-induced FOXM1 levels
concentration giving reduction of cellular levels of FOXM1 protein (FOXM1 [2]; OVCAR-8, ES-2, HCT-116, HCT-FET, TAM-R, HCC-1143, 22RV1, LNCaP, tested at 1, 5, 10 μM): 1 µM
FOXM1 protein levels in combination with doxorubicin (FOXM1 [2]; OVCAR-8, ES-2, 24 hrs): efficiently prevented FOXM1 activation
FOXM1 level in combination with tamoxifen (FOXM1 [2]; TAMR cells): efficiently prevents tamoxifen induced FOXM1 upregulation
FOXM1 expression (FOXM1 [2]; breast, colorectal, esophageal and ovarian cancer cells): demonstrably lowers FOXM1 expression
efficiency in reducing cellular FOXM1 activity compared to STL427944 (FOXM1 [2]; solid cancer cell lines): ~ 25 times
% of nuclei expressing FOXM1 after treatment (FOXM1 [3]): 29%
